Data as given in patent US10864212B2, “Compositions and methods for treating retinal degradation” (University of Kentucky Research Foundation, priority 2013, dated 2020).
Entries after “also recorded” stand apart in the source; their conditions may differ.

Legend:
[1] = tested on: GFP-expressing lentivirus; assay: Replication of a GFP-expressing lentivirus in HeLa cells; type: cell-based; conditions: HeLa cells; FIG. 22
From the text: (§1) The present disclosure further provides the results of additional experiments in FIG. 21-FIG. 23.

[2] = tested on: graft-versus-host disease; assay: Graft-versus-host disease model, mice receiving allogeneic bone marrow and T cells; type: in vivo, mouse; conditions: saline treated controls 0%
From the text: To explore the potential therapeutic relevance of NRTIs beyond the Alu-induced model of geographic atrophy (GA), it was hypothesized that if NRTIs function as generic inflammasome inhibitors, then they might be broadly useful in other animal models of disease that are also driven by P2X7.

Alu RNA = assay: Northern blot of Alu RNA levels in primary human RPE cells; type: cell-based
From the text: FIG. 4 provides another example of the results of Northern blotting using an Alu-specific probe.
FIG. 45 is a Northern blot of biotin-UTP-labeled Alu RNA-transfected primary human RPE cells.
As presented in FIG. 3, primary human RPE cells treated with antisense oligonucleotides targeting DICER1 (Dcr as) (lane 3 (third lane from left)) show increased Alu RNA levels in the nuclear compartment compared to control antisense oligonucleotides (Ctr as) (lane 1 (leftmost)), monitored by Northern blotting using an Alu-specific probe.
For example, primary human RPE cells may be transfected with Alu RNA, with or without d4T. […] U6 (bottom row) is shown as loading control for nuclear fraction in FIG. 4.
And FIG. 45 presents a Northern blot of biotin-UTP-labeled Alu RNA-transfected primary human RPE cells.

ATP release = ATP release induced by Alu RNA from primary human RPE cells (ATP-dependent luciferase assay); type: cell-based; conditions: cell culture supernatant, FIG. 16, 42
From the text: Cell culture supernatant was collected from mock or Alu RNA treated cells, with or without d4T, and ATP was detected using an ATP-dependent luciferase assay.
(FIG. 16) Primary human RPE cells treated with Alu RNA for the times indicated release ATP. […] ATP was detected using an ATP-dependent luciferase assay.

IL-1 beta [3] = assay: MSU-induced IL-1 beta secretion from PMA-differentiated THP-1 monocytes (ELISA); type: cell-based, human; conditions: co-administration at 25-1000 uM, FIG. 11, 12
From the text: Human THP-1 monocytes were differentiated into macrophages with PMA.
To illustrate this, human THP-1 monocytes were differentiated into macrophages with PMA. Treatment with MSU increased IL-1 beta secretion compared to non-treated cells.

mtDNA = mtDNA levels in primary mouse RPE cells by real-time quantitative PCR; type: cell-based
From the text: as §1

human P2X7 receptor = molecular target: T1, human P2X7 receptor (Homo sapiens, UniProt Q99572); assay: bzATP-induced YO-PRO-1 dye uptake in HEK293 cells stably expressing the human P2X7 receptor; type: cell-based
T1 construct: expressed in transfected cells
T1 sequence (Q99572 1-595): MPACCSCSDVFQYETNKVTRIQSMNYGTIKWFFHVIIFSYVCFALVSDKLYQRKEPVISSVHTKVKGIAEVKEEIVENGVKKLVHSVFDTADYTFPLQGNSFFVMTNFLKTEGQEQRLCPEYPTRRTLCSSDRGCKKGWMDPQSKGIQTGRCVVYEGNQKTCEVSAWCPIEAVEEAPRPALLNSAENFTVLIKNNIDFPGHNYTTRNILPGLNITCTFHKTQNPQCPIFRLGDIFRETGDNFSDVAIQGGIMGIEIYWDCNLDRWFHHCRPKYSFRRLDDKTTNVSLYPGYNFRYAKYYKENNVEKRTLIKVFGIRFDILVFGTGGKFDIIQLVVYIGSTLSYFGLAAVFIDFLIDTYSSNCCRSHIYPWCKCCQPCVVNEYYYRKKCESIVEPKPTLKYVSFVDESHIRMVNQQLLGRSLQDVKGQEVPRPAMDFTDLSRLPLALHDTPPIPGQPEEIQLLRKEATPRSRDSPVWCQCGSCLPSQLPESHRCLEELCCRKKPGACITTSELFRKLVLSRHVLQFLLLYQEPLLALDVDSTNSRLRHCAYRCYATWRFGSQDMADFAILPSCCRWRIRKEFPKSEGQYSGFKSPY
From the text: Finally, P2X7 activation is associated with the formation of a large pore that is permeable to molecules of up to ˜1000 Da (Adinolfi et al., 2005; Cheewatrakoolpong et al., 2005; Surprenant et al., 1996).

IL-1 beta [4] = assay: LPS/ATP-induced IL-1 beta activation in primary mouse bone marrow-derived macrophages (Western blot); type: cell-based; conditions: FIG. 39
From the text: To determine whether LPS/ATP-induced inflammasome activation can be inhibited without RT inhibition, the present inventors utilized thymidine kinase-deficient (Raji/TK^−) and -expressing (Raji/TK^+) cells (Balzarini et al., 1989). After addition of AZT, […], but not TK^− cells, the present inventors produced AZT-triphosphate (AZT-TP), the AZT metabolite required for RT inhibition (FIG. 40; FIG. 46, FIG. 47, FIG. 48, FIG. 49, FIG. 50).
(§2) FIGS. 38-41 illustrate that NRTIs block LPS/ATP-induced inflammasome activation. […] Representative images of n=3-4 experiments are provided in each of FIGS. 38-41.

Caspase-1 [5] = assay: LPS/ATP-induced Caspase-1 activation in mouse bone marrow-derived macrophages (Western blot); type: cell-based
From the text: To produce FIG. 9, cell culture supernatants were collected after (i) no treatment, (ii) LPS treatment, or (iii) LPS/ATP treatment of mouse bone marrow-derived macrophages and run on Western blotting probing with antibodies for Caspase-1 and IL-18.
Further, the present inventors also tested whether NRTIs blocked inflammasome activation by LPS/ATP, which is not known to signal via reverse transcriptase (Mariathasan et al., 2004; Mariathasan et al., 2006; Martinon et al., 2002).
as §2

RPE degeneration = assay: Alu RNA-induced RPE degeneration in wild type mice, d4T co-delivered to the vitreous humor; type: in vivo, mouse; conditions: sub-retinal Alu RNA, increasing amounts, one week after delivery, FIG. 1
From the text: Arrows denote depigmented regions of RPE cell death, which resolve at highest dose of d4T.

[6] = tested on: mitochondrial reactive oxygen species (mtROS); assay: MitoSox assay of mitochondrial ROS in primary human RPE cells with Alu expressing plasmid; type: cell-based; conditions: pAluA vs pUC19, after 15 hours, FIG. 15, 54
Method: After 15 hours cells were co-stained for mtROS (red) and for cell count, nuclei (blue; Hoechst DNA stain).
In FIG. 54, mitochondrial reactive oxygen species (ROS) were visualized with MitoSox (Red) and cell nuclei with Hoechst (Blue).

HeLa cells = assay: MTS proliferation assay of HeLa cells treated with Alu RNA expression plasmid (pAluA); type: cell-based, human; conditions: pAluA vs pUC19, d4T co-administration, FIG. 2
Caspase-1 [7] = assay: Western blot of Caspase-1 activation in primary mouse RPE cells transfected with Alu RNA; type: cell-based; conditions: FIG. 44

In the case of Cc1cn([C@H]2C=C[C@@H](CO)O2)c(=O)[nH]c1=O [d4T, 2′3′ dideoxythymidine], the “Replication of a GFP-expressing lentivirus” value [1] is reported as “blocks replication of a GFP-expressing lentivirus”, the Survival [2] is reported as 30-70% and the “Alu RNA levels (normalized to u6 RNA)” value (Alu RNA; biotin-UTP-labeled Alu RNA-transfected primary human RPE cells, FIG. 45) is reported as “without reducing Alu RNA levels; also recorded: did not reduce Alu RNA levels”. The “Alu RNA levels in nuclear fraction” value (Alu RNA; human RPE cells transfected with Alu RNA, 1, 4, or 24 hours after transfection, FIG. 4) was “does not change Alu RNA levels”, the “Alu RNA levels in nuclear compartment” value (Alu RNA; primary human RPE cells treated with antisense oligonucleotides targeting DICER1, FIG. 3) was “does not reduce Alu RNA levels” and the “ATP release induced by Alu RNA” value (ATP release) was “does not block release of ATP; also recorded: did not affect ATP release; also recorded: does not block Alu-induced ATP release”. For the same molecule, the “IL-1 beta secretion induced by MSU” value (IL-1 beta [3]) was “does not prevent P2X7-independent interleukin 1-beta secretion; also recorded: did not significantly affect IL-1beta secretion”, the “mtDNA levels (normalized to chromosomal DNA exon-intron junction sequence)” value (mtDNA) was “reduces mtDNA levels” and the “YO-PRO-1 iodide entry stimulated with bzATP” value (human P2X7 receptor; HEK293 human P2X7, pre-incubated 30 minutes, fluorescence 485/515 nm at t=30 minutes, FIG. 19) was “blocked YO-PRO-1 iodide entry”. The “P2X7-mediated YO-PRO-1 dye uptake (fluorescence) induced by bzATP” value (human P2X7 receptor; bzATP 100 μM, 64 μM for both drugs, p<0.05, n=12, FIG. 43) was “inhibited”, the “P2X7-dependent uptake of YO-PRO1 after addition of bzATP” value (human P2X7 receptor; human P2X7-overexpressing HEK293 stable cell line, concentration not given) was “inhibited P2X7-dependent uptake of the fluorescent dye YO-PRO1” and the “IL-1 beta activation / secretion of mature IL-1 beta, LPS/ATP” value (IL-1 beta [4]) was “blocks secretion of mature IL-1 beta; also recorded: blocked IL-1 beta”. The “Caspase-1 activation (active p20 band) induced by LPS/ATP” value (Caspase-1 [5]; mouse bone marrow-derived macrophages, supernatants, 100 uM, FIG. 9) was “inhibit”, the “LPS/ATP-induced Caspase-1 maturation” value (Caspase-1 [5]; primary mouse bone marrow-derived macrophages, FIG. 38) was “inhibited; also recorded: blocked Caspase-1” and the “Alu RNA-induced RPE degeneration / RPE cell death (fundus photographs, ZO-1 flat mounts)” value (RPE degeneration) was “prevents Alu RNA-induced RPE cell death in a dose-dependent manner; also recorded: restored to healthy RPE morphology/intercellular junctions at highest dose of d4T”. For the same molecule, the “Mitochondrial ROS (mtROS) caused by Alu expression (MitoSox)” value [6] was “blocks mitochondrial ROS (mtROS) production; also recorded: reduces mitochondrial ROS caused by Alu expression; also recorded: prevents pAlu-induced mitochondrial ROS generation”, the “Cell viability / cell death induced by Alu overexpression (MTS)” value (HeLa cells) was “prevented cell death induced by Alu overexpression” and the “Caspase 1 cleavage to its active 20 kDa form” value (Caspase-1 [7]) was “prevents Caspase 1 cleavage to its active 20 kDa form”.
